Results as given in paper PMC6934184, “Selective DNA-PKcs inhibition extends the therapeutic index of localized radiotherapy and chemotherapy” (The Journal of Clinical Investigation, 2019).

Target: T1, KIT T670I (Homo sapiens, UniProt P10721, T670I)
T1 construct: purchased Thermo Fisher Scientific (Life Technologies) SelectScreen
Experiment: SelectScreen Z'LYTE
Type: biochemical
In short: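 SelectScreen broad panel; activity (Z'LYTE, Adapta) plus binding formats. ATP: Km app for CSF1R Z'LYTE; 10 for CAMK1 Adapta. Readout = % per kinase.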

T1 sequence (P10721 26-976 T670I): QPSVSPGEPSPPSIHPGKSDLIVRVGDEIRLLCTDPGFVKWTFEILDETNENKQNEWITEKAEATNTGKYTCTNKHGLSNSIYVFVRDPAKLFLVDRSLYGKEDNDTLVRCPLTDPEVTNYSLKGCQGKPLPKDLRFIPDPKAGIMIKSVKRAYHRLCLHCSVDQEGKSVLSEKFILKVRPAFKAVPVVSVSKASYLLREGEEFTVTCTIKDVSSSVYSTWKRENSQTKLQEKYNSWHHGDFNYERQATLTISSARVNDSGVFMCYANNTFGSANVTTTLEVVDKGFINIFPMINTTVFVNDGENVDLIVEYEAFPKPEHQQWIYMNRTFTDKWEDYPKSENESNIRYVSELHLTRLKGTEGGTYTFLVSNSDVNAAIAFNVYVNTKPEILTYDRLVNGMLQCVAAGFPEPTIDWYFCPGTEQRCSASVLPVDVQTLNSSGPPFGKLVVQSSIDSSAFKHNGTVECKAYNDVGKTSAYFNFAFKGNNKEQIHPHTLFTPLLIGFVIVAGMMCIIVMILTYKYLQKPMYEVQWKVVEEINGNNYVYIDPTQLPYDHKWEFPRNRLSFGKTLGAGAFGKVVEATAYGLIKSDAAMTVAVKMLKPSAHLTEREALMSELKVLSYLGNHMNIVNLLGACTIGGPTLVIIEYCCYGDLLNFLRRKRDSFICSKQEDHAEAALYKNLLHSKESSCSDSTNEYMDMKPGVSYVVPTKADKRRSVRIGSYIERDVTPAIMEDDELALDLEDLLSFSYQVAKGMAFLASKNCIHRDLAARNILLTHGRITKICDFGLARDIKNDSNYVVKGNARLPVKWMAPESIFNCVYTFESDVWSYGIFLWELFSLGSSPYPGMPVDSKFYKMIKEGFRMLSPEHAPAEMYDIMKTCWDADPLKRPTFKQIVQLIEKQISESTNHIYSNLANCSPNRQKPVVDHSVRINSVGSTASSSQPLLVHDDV

`CN(C(=O)CN1CCOCC1)c1ccc2sc3c(-c4cccc5c(=O)cc(N6CC7CCC(C6)O7)oc45)cccc3c2c1` [NU5455] gave an inhibition at 1 µM of -24.4%.
